Measurements published in US20250236616A1, “IMMUNOMODULATING AZALIDES” (Zoetis Services LLC, priority 2021, published 2025).

Legend:
[1] = tested on: IL-1β; test: Whole bovine blood assay, LPS-induced IL-1β (inhibition / overstimulation); format: cell-based; conditions: Bos taurus, 18 h, drug concentration giving overstimulation (OS) of LPS-induced IL-1β, top concentration 250 μM
Summary of the method: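 Fresh heparinized bovine whole blood was preincubated with compound at varying concentrations for 4 h at 37 °C, then stimulated with 1 μg/mL LPS for 18 h. Plasma IL-1β was measured by MSD chemiluminescent immunoassay and normalized to total protein. Values cover inhibition and concentration-dependent overstimulation.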

[2] = tested on: TNF-α; test: Whole bovine blood assay, LPS-induced TNF-α; format: cell-based; conditions: Bos taurus, fresh whole bovine blood, LPS stimulant; top drug concentration 250 μM
Summary of the method: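 Fresh heparinized bovine whole blood was preincubated with compound 4 h at 37 °C, then stimulated with LPS (final 1 μg/mL) for 18 h at 37 °C. Plasma TNF-α was quantified by MSD U-Plex chemiluminescent immunoassay, normalized to total protein (BCA), and IC50 taken for LPS-induced TNF-α inhibition.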

Row | Compound | minimal effective concentration [1] [µM] | IC50 [2] [µM]
1 | CC[C@H]1OC(=O)[C@H](C)[C@@H](O)[C@H](C)[C@@H](O[C@@H]2O[C@H](C)C[C@H](N(C)S(=O)(=O)c3ccccc3)[C@H]2Oc2ccc(OC)cc2)[C@](C)(O)C[C@@H](C)CN[C@H](C)[C@@H](O)[C@]1(C)O [Example A-9, N-((2S,3R,4S,6R)-2-(((2R,3S,4R,5R,8R,10R,11R,12S,13S,14R)-2-ethyl-3,4,10,13-tetrahydroxy-3,5,8,10, 12, 14-hexamethyl-15-oxo-1-oxa-6-azacyclopentadecan-11-yl)oxy)-3-(4-methoxyphenoxy)-6-methyltetrahydro-2H-pyran-4-yl)-N-methylbenzenesulfonamide] | 16 | 4
2 | CCCNC[C@]1(O)[C@H](C)O[C@@H](O[C@H]2[C@H](C)[C@@H](O[C@@H]3O[C@H](C)C[C@H](N(C)S(=O)(=O)c4ccc(C)cc4)[C@H]3O)[C@](C)(O)C[C@@H](C)CN[C@H](C)[C@@H](O)[C@](C)(O)[C@@H](CC)OC(=O)[C@@H]2C)C[C@@]1(C)OC [Example B-26, N-((2S,3R,4S,6R)-2-(((2R,3S,4R,5R,8R,10R,11R,12S,13S,14R)-2-ethyl-3,4,10-trihydroxy-13-(((2R,4R,5S,6S)-5-hydroxy-4-methoxy-4,6-dimethyl-5-((propylamino)methyl)tetrahydro-2H-pyran-2-yl)oxy)-3,5,8,10,12,14-hexamethyl-15-oxo-1-oxa-6-azacyclopentadecan-11-yl)oxy)-3-hydroxy-6-methyltetrahydro-2H-pyran-4-yl)-N,4-dimethylbenzenesulfonamide] | 16 | 20
3 | CC[C@H]1OC(=O)[C@H](C)[C@@H](O[C@H]2C[C@@](C)(OC)[C@](O)(CN3CCCCC3)[C@H](C)O2)[C@H](C)[C@@H](O[C@@H]2O[C@H](C)C[C@H](N(C)S(=O)(=O)c3ccc(Cl)cc3)[C@H]2O)[C@](C)(O)C[C@@H](C)CN[C@H](C)[C@@H](O)[C@]1(C)O [Example C-4, 4-chloro-N-((2S,3R,4S,6R)-2-(((2R,3S,4R,5R,8R,10R,11R,12S,13S,14R)-2-ethyl-3,4,10-trihydroxy-13-(((2R,4R,5S,6S)-5-hydroxy-4-methoxy-4,6-dimethyl-5-(piperidin-1-ylmethyl)tetrahydro-2H-pyran-2-yl)oxy)-3,5,8, 10, 12, 14-hexamethyl-15-oxo-1-oxa-6-azacyclopentadecan-11-yl)oxy)-3-hydroxy-6-methyltetrahydro-2H-pyran-4-yl)-N-methylbenzenesulfonamide] | 16 | 5
4 | CCCNC[C@]1(O)[C@H](C)O[C@@H](O[C@H]2[C@H](C)[C@@H](O[C@@H]3O[C@H](C)C[C@H](N(C)S(=O)(=O)Nc4ccc(C(F)(F)F)cc4)[C@H]3O)[C@](C)(O)C[C@@H](C)CN[C@H](C)[C@@H](O)[C@](C)(O)[C@@H](CC)OC(=O)[C@@H]2C)C[C@@]1(C)OC [Example B-50, (2R,3S,4R,5R,8R,10R,11R,12S,13S, 14R)-2-ethyl-3,4,10-trihydroxy-13-[(2R,4R,5S,6S)-5-hydroxy-4-methoxy-4,6-dimethyl-5-(propylaminomethyl)oxan-2-yl]oxy-11-[(2S,3R,4S,6R)-3-hydroxy-6-methyl-4-[methyl-[[4-(trifluoromethyl)phenyl]sulfamoyl]amino]oxan-2-yl]oxy-3,5,8, 10, 12, 14-hexamethyl-15-oxo-1-oxa-6-azacyclopentadecane] | 6 | 
5 | CC[C@H]1OC(=O)[C@H](C)[C@@H](O[C@H]2C[C@@](C)(OC)[C@](O)(CN3CCCCC3)[C@H](C)O2)[C@H](C)[C@@H](O[C@@H]2O[C@H](C)C[C@H](N(C)S(=O)(=O)Nc3ccc(C(F)(F)F)cc3)[C@H]2O)[C@](C)(O)C[C@@H](C)CN[C@H](C)[C@@H](O)[C@]1(C)O [Example C-11, (2R,3S,4R,5R,8R,10R,11R,12S, 13S, 14R)-2-ethyl-3,4, 10-trihydroxy-13-[(2R,4R,5S,6S)-5-hydroxy-4-methoxy-4,6-dimethyl-5-(piperidin-1-ylmethyl)oxan-2-yl]oxy-11-[(2S,3R,4S,6R)-3-hydroxy-6-methyl-4-[methyl-[[4-(trifluoromethyl)phenyl]sulfamoyl]amino]oxan-2-yl]oxy-3,5,8, 10, 12, 14-hexamethyl-15-oxo-1-oxa-6-azacyclopentadecane] |  | 17
6 | CCCNC[C@]1(O)[C@H](C)O[C@@H](O[C@H]2[C@H](C)[C@@H](O[C@@H]3O[C@H](C)C[C@H](NC)[C@H]3O)[C@](C)(O)C[C@@H](C)CN[C@H](C)[C@@H](O)[C@](C)(O)[C@@H](CC)OC(=O)[C@@H]2C)C[C@@]1(C)OC [Example M9, (2R,3S,4R,5R,8R,10R,11R,12S,13S,14R)-2-ethyl-3,4, 10-trihydroxy-13-(((2R,4R,5S,6S)-5-hydroxy-4-methoxy-4,6-dimethyl-5-((propylamino)methyl)-tetrahydro-2H-pyran-2-yl)oxy)-11-(((2S,3R,4S,6R)-3-hydroxy-6-methyl-4-(methylamino)tetrahydro-2H-pyran-2-yl)oxy)-3,5,8,10,12,14-hexamethyl-1-oxa-6-azacyclopentadecan-15-one] |  | 250
